Results from patent publication US20070128217A1 (priority 2003, published 2007).

What was measured:
[1] = system: antibodies in sera from SARS patients (sera 1a, 1b, 2, 6, 37, 62, London, SARS-yellow, SARS-green); format: binding, human; parameters: Binding of serum 6 to linear peptides of protein X1 of SARS-CoV Urbani / Binding of serum 37 to linear peptides of protein X1 of SARS-CoV Urbani / Binding of serum 6 to looped/cyclic peptide (PEPSCAN-ELISA) / Binding of serum 37 to looped/cyclic peptide (PEPSCAN-ELISA) / Binding of serum 37 to looped/cyclic peptides of protein X1 of SARS-CoV Urbani / Binding of serum 6 to linear peptides of protein X2 / Binding of serum 37 to linear peptides of protein X2 / Binding of serum 37 to looped/cyclic peptides of protein X2 of SARS-CoV Urbani / Binding of serum 6 to linear peptides of protein M of SARS-CoV Urbani / Binding of serum 37 to linear peptides of protein M of SARS-CoV Urbani / Binding of serum 6 to looped/cyclic peptides of protein M of SARS-CoV Urbani / Binding of serum 37 to looped/cyclic peptides of protein M of SARS-CoV Urbani / Binding of serum 6 to linear peptides of protein X3 of SARS-CoV Urbani / Binding of serum 37 to linear peptides of protein X3 of SARS-CoV Urbani / Binding of serum 37 to looped/cyclic peptides of protein X3 of SARS-CoV Urbani / Binding of serum 6 to linear peptides of protein X4 of SARS-CoV Urbani / Binding of serum 37 to linear peptides of protein X4 of SARS-CoV Urbani / Binding of serum 37 to looped/cyclic peptides of protein X4 of SARS-CoV Urbani / Binding of serum 6 to linear peptides of protein X5 of SARS-CoV Urbani / Binding of serum 37 to linear peptides of protein X5 of SARS-CoV Urbani / Binding of serum 37 to looped/cyclic peptides of protein X5 of SARS-CoV Urbani / Binding of serum 6 to linear peptides of protein N of SARS-CoV Urbani / Binding of serum 37 to linear peptides of protein N of SARS-CoV Urbani / Binding of serum 6 to linear peptide (PEPSCAN-ELISA) / Binding of serum 1a to looped/cyclic peptides of protein N of SARS-CoV Urbani / Binding of serum 1b to looped/cyclic peptides of protein N of SARS-CoV Urbani / Binding of serum 2 to looped/cyclic peptides of protein N of SARS-CoV Urbani / Binding of serum 6 to looped/cyclic peptides of protein N of SARS-CoV Urbani / Binding of serum 37 to looped/cyclic peptides of protein N of SARS-CoV Urbani / Binding of serum 62 to looped/cyclic peptides of protein N of SARS-CoV Urbani / Binding of serum London to looped/cyclic peptides of protein N of SARS-CoV Urbani / Binding of serum SARS-green to looped/cyclic peptides of protein N of SARS-CoV Urbani: unit not given here
[2] = system: recombinant human anti-SARS-CoV antibody 03-018; format: binding; parameters: Binding of antibody 03-018 to linear peptides of the N protein of SARS-CoV Urbani / Binding of antibody 03-018 to looped/cyclic peptides of the N protein of SARS-CoV Urbani: unit not given here
[3] = system: rabbit serum obtained by immunizing a rabbit with the SARS-CoV strain Frankfurt 1; format: binding; parameters: Binding of a rabbit serum to linear peptides / Binding of a rabbit serum to looped peptides / Rabbit serum linear peptides / Rabbit serum looped peptides / Binding of a rabbit serum to linear peptides of protein N of SARS-CoV Urbani (Rabbit serum linear peptides) / Binding of a rabbit serum to looped/cyclic peptides of protein N of SARS-CoV Urbani (Rabbit serum looped peptides): unit not given here
[4] = system: control sera (pooled serum of ten healthy LUMC hospital workers; commercial negative donor pooled serum from the Dutch bloodbank); format: binding, human; parameters: Binding of Control serum LUMC to linear peptides / Binding of Control serum Blood-bank to linear peptides / Binding of Control serum LUMC to looped peptides / Binding of Control Serum Blood-Bank to Looped peptides / Binding of Control serum LUMC to linear peptides of the protein M of SARS-CoV Urbani / Binding of Control serum Blood-bank to linear peptides of the protein M of SARS-CoV Urbani / Binding of Control serum LUMC to looped peptides of the protein M of SARS-CoV Urbani / Binding of Control Serum Blood-Bank to Looped peptides of the protein M of SARS-CoV Urbani: unit not given here

For GKGQQQQGQTVTKKS, which “Binding of serum 1a to linear peptide (PEPSCAN-ELISA)” value [1] is on record?
Its value is 0.3.

What about the “Binding of serum 1a to looped/cyclic peptides of protein N of SARS-CoV Urbani” value [1] of the same sequence?
The value was 1.4.

And the “Binding of serum 1b to linear peptide (PEPSCAN-ELISA)” value [1]?
The value was 0.1.

And the “Binding of serum 1b to looped/cyclic peptides of protein N of SARS-CoV Urbani” value [1]?
The value was 0.6.

What about the “Binding of serum 2 to linear peptide (PEPSCAN-ELISA)” value [1] of the same sequence?
The value was 0.3.

What about the “Binding of serum 2 to looped/cyclic peptides of protein N of SARS-CoV Urbani” value [1] of the same sequence?
Its value is 0.7.

What about the “Binding of serum 6 to linear peptide (PEPSCAN-ELISA)” value [1] of the same sequence?
Its value is 0.3.

What about the “Binding of serum 6 to looped/cyclic peptides of protein N of SARS-CoV Urbani” value [1] of the same sequence?
The value was 0.4.

And the “Binding of serum 37 to linear peptide (PEPSCAN-ELISA)” value [1]?
Its value is 0.7.

And the “Binding of serum 37 to looped/cyclic peptides of protein N of SARS-CoV Urbani” value [1]?
Its value is 0.5.

And the “Binding of serum 62 to linear peptide (PEPSCAN-ELISA)” value [1]?
Its value is 0.7.

What about the “Binding of serum 62 to looped/cyclic peptides of protein N of SARS-CoV Urbani” value [1] of the same sequence?
The value was 0.6.

What about the “Binding of serum London to linear peptide (PEPSCAN-ELISA)” value [1] of the same sequence?
Its value is 0.5.

And the “Binding of serum London to looped/cyclic peptides of protein N of SARS-CoV Urbani” value [1]?
The value was 0.4.

What about the “Binding of serum SARS-green to linear peptide (PEPSCAN-ELISA)” value [1] of the same sequence?
The value was 0.2.

And the “Binding of serum SARS-green to looped/cyclic peptides of protein N of SARS-CoV Urbani” value [1]?
The value was 0.6.

And the “Binding of serum SARS-yellow to linear peptide (PEPSCAN-ELISA)” value [1]?
The value was 0.7.

What about the “Binding of serum SARS-yellow to looped/cyclic peptides of protein N of SARS-CoV Urbani” value [1] of the same sequence?
The value was 0.5.

What about the “Binding of antibody 03-018 to linear peptides of the N protein of SARS-CoV Urbani” value [2] of the same sequence?
Its value is 0.1.

What about the “Binding of antibody 03-018 to looped/cyclic peptides of the N protein of SARS-CoV Urbani” value [2] of the same sequence?
Its value is 0.2.

What about the “Binding of a rabbit serum to linear peptides of protein N of SARS-CoV Urbani (Rabbit serum linear peptides)” value [3] of the same sequence?
The value was 0.2.

And the “Binding of a rabbit serum to looped/cyclic peptides of protein N of SARS-CoV Urbani (Rabbit serum looped peptides)” value [3]?
The value was 0.4.

What about the “Binding of Control Serum Blood-Bank to Looped peptides” value [4] of the same sequence?
Its value is 0.6.

And the “Binding of Control serum Blood-bank to linear peptides” value [4]?
Its value is 0.9.

What about the “Binding of Control serum LUMC to linear peptides” value [4] of the same sequence?
The value was 1.0.

And the “Binding of Control serum LUMC to looped peptides” value [4]?
The value was 0.7.

For GKMKELSPRWYFYYL, which “Binding of serum 1a to linear peptides of protein N of SARS-CoV Urbani” value [1] is on record?
Its value is 0.2.

And the “Binding of serum 1a to looped/cyclic peptides of protein N of SARS-CoV Urbani” value [1]?
The value was 0.3.

What about the “Binding of serum 1b to linear peptides of protein N of SARS-CoV Urbani” value [1] of the same sequence?
The value was 0.1.

And the “Binding of serum 1b to looped/cyclic peptides of protein N of SARS-CoV Urbani” value [1]?
The value was 0.2.

What about the “Binding of serum 2 to linear peptides of protein N of SARS-CoV Urbani” value [1] of the same sequence?
Its value is 0.1.

What about the “Binding of serum 2 to looped/cyclic peptides of protein N of SARS-CoV Urbani” value [1] of the same sequence?
The value was 0.5.

And the “Binding of serum 6 to linear peptides of protein N of SARS-CoV Urbani” value [1]?
The value was 0.1.

What about the “Binding of serum 6 to looped/cyclic peptides of protein N of SARS-CoV Urbani” value [1] of the same sequence?
The value was 0.4.

What about the “Binding of serum 37 to linear peptides of protein N of SARS-CoV Urbani” value [1] of the same sequence?
The value was 0.5.

And the “Binding of serum 37 to looped/cyclic peptides of protein N of SARS-CoV Urbani” value [1]?
The value was 0.8.

What about the “Binding of serum 62 to linear peptides of protein N of SARS-CoV Urbani” value [1] of the same sequence?
The value was 0.5.

And the “Binding of serum 62 to looped/cyclic peptides of protein N of SARS-CoV Urbani” value [1]?
The value was 0.8.

And the “Binding of serum London to linear peptides of protein N of SARS-CoV Urbani” value [1]?
Its value is 0.4.

And the “Binding of serum London to looped/cyclic peptides of protein N of SARS-CoV Urbani” value [1]?
Its value is 0.7.

And the “Binding of serum SARS-green to linear peptides of protein N of SARS-CoV Urbani” value [1]?
The value was 0.2.

And the “Binding of serum SARS-green to looped/cyclic peptides of protein N of SARS-CoV Urbani” value [1]?
The value was 0.4.

And the “Binding of serum SARS-yellow to linear peptides of protein N of SARS-CoV Urbani” value [1]?
The value was 0.6.

And the “Binding of serum SARS-yellow to looped/cyclic peptides of protein N of SARS-CoV Urbani” value [1]?
The value was 0.6.

And the “Binding of antibody 03-018 to linear peptides of the N protein of SARS-CoV Urbani” value [2]?
Its value is 0.1.

And the “Binding of antibody 03-018 to looped/cyclic peptides of the N protein of SARS-CoV Urbani” value [2]?
The value was 0.3.

And the “Binding of a rabbit serum to linear peptides of protein N of SARS-CoV Urbani (Rabbit serum linear peptides)” value [3]?
Its value is 0.1.

And the “Binding of a rabbit serum to looped/cyclic peptides of protein N of SARS-CoV Urbani (Rabbit serum looped peptides)” value [3]?
The value was 0.7.

What about the “Binding of Control Serum Blood-Bank to Looped peptides” value [4] of the same sequence?
The value was 0.8.

What about the “Binding of Control serum Blood-bank to linear peptides” value [4] of the same sequence?
The value was 0.6.

And the “Binding of Control serum LUMC to linear peptides” value [4]?
The value was 0.6.

What about the “Binding of Control serum LUMC to looped peptides” value [4] of the same sequence?
The value was 0.7.
